Experimental findings from ChEMBL document CHEMBL1146631, “Design and synthesis of novel CCR3 antagonists” (Bioorg Med Chem Lett, 2003) are described below.

Series [1] can be described thus: Plasma clearance in rat by iv administration. It is filed as ADME, organism-based.
Series [2] addresses T1, C-C chemokine receptor type 3 (Homo sapiens, UniProt P51677).
T1 sequence (P51677 whole entry): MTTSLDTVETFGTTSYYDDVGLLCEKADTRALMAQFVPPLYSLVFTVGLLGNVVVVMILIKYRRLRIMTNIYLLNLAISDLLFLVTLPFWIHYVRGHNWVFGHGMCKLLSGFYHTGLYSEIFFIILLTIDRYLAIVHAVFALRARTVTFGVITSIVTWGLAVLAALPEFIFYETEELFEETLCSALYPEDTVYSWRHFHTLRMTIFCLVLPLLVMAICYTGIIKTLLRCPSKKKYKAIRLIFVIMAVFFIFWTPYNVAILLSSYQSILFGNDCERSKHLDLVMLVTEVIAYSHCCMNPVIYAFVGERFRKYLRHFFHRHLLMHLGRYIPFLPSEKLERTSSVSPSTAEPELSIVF
Put plainly: Binding affinity was determined towards C-C chemokine receptor type 3 using [125I]-labeled eotaxin as radioligand.

Series [3] can be described thus: Volume of distribution in rat by iv administration. It is filed as ADME, organism-based. The conditions noted are these: in vivo.
A short description of series [4]: Half-life period in rat by iv administration. The conditions noted are these: in vivo. It is filed as ADME, organism-based.
A further series concerns Rattus norvegicus. The series is described as follows: Area under curve in rat by po administration at 0-24 hr. Details: time < 24 hr, route oral. Particulars: in vivo. It is filed as ADME, organism-based.
The target of series [5] is T1, C-C chemokine receptor type 3. Put plainly: Compound was tested for its ability to inhibit C-C chemokine receptor type 3 receptor.

Some results are limits rather than exact numbers.

As usually defined, the clearance is a measure of how efficiently the substance is removed, as volume per time. The low end stands for inefficient removal, the high end for efficient removal. One may read the IC50 as the point on the concentration scale where inhibition reaches its midpoint. A low value points to higher potency. Broadly, the Vd is a proportionality between amount in the body and measured concentration, not a real space. By half-life is commonly meant the time needed for the level to fall by half in the phase considered. Regarding `Cc1ccc(C(=O)NC(CN2C3CCC2CC(Cc2ccc(Cl)c(Cl)c2)C3)C(C)C)cc1` (stereo not drawn), the clearance in series [1] was 118 mL/min/kg. The same compound showed an IC50 in series [2] of 1800 nM. Moreover, the Vd in series [3] came to 30.1 L/kg. This compound had a half-life in series [4] of 210 min. Take `Cc1ccc(C(=O)NC(CC2CCN(Cc3ccccc3)CC2)C(C)C)cc1` (stereo not drawn): in series [2], the IC50 was greater than 200000 nM. What is called AUC is concentration integrated over time. Read a low AUC as low exposure. In turn, `C[C@H](O)[C@H](CN1C2CCC1CC(Cc1ccc(Cl)cc1)C2)NC(=O)Nc1cccc(S(C)(=O)=O)c1` (stereo partly drawn) returned an area under the curve (AUC) in the series with Rattus norvegicus of 0.71 µg·h/mL. Moreover, the IC50 in series [5] worked out at 4.4 nM; in series [2], 12 nM. `Cc1ccc(C(=O)NC(CC2CCN(Cc3ccc(Cl)c(Cl)c3)CC2)C(C)C)cc1` (stereo not drawn) registered an IC50 in series [2] of 1700 nM. The same measure, in the same setting: as for `COc1cc(NC(=O)NC(CC2CCN(Cc3ccc(Cl)c(Cl)c3)CC2)C(C)C)cc(OC)c1OC` (stereo not drawn), the figure is 500 nM; as for `Cc1ccc(C(=O)NC(CC2CCC(Cc3ccc(Cl)c(Cl)c3)CC2)C(C)C)cc1` (stereo not drawn), greater than 200000 nM. `COc1cc(NC(=O)N[C@H](C)CN2C3CCC2CC(Cc2ccc(Cl)cc2)C3)cc(OC)c1OC` (stereo partly drawn) showed an AUC in the series with Rattus norvegicus of 0.28 µg·h/mL. The IC50 in series [5] was found to be 4.7 nM; in series [2], 11 nM. `Cc1ccc(C(=O)NC(CN2CC3CCC2CC3Cc2ccc(Cl)c(Cl)c2)C(C)C)cc1` (stereo not drawn) had an IC50 in series [2] of 5300 nM. That is a single-digit micromolar value. On to `C[C@H](CN1C2CCC1CC(Cc1ccc(Cl)cc1)C2)NC(=O)Nc1cccc(S(C)(=O)=O)c1` (stereo partly drawn), for which the IC50 in series [5] is 12 nM; in series [2], 65 nM. In turn, `Cc1ccc(C(=O)NC(CN2CCC(Cc3ccc(Cl)c(Cl)c3)CC2)C(C)C)cc1` (stereo not drawn) registered an IC50 in series [2] of 500 nM. `Cc1ccc(C(=O)NC(CC2CCN(Cc3ccc([N+](=O)[O-])cc3)CC2)C(C)C)cc1` (stereo not drawn) returned an IC50 in series [2] of 8500 nM.

In the series on Rattus norvegicus, `COc1cc(NC(=O)N[C@@H](CN2C3CCC2CC(Cc2ccc(Cl)cc2)C3)[C@H](C)O)cc(OC)c1OC` (stereo partly drawn) gave an AUC of 0.19 µg·h/mL. Further, the IC50 came to 2.4 nM in series [5] and 8.2 nM in series [2]. `Cc1ccc(C(=O)NC(CC2CCN(Cc3ccc(C)c(C)c3)CC2)C(C)C)cc1` (stereo not drawn) returned an IC50 in series [2] of 7800 nM.
